Measurements: paper PMC4740413, “Multi-Drug Resistance Transporters and a Mechanism-Based Strategy for Assessing Risks of Pesticide Combinations to Honey Bees” (PLoS ONE, 2016)
Read-outs that look alike come from different tables or passages of the source.

Assays:
honey bees [1] = conditions: for Mortality (SE) 1 μg/ml IVM and 1mM Inhibitor: 1 mM inhibitor fed 24 h, then 1 mM inhibitor + 1 μg/ml ivermectin, proportion of bees dead at 24 h; for Mortality (SE), inhibitor-only control: 1 mM inhibitor without ivermectin, proportion of bees dead
Experimental: Apis mellifera were obtained from hives maintained on the University of Maryland farm in Beltsville, MD. Hives were maintained by standard bee keeping practices, and kept free of in-hive medications. Brood frames were taken from hives and emerging bees were collected daily into 207 ml cages of 15–20 bees and fed 30% sucrose w/v solution. Bees used in bioassays were 3–7 days post-eclosion.
Mortality was recorded 24 h after ivermectin exposure for 20–28 replicate cages of bees with approximately 15 bees in each cage. No-inhibitor controls (15 cages) were included in each assay. […] Mortality rates for each concentration of ivermectin were estimated by averaging the mortality of approximately 15 bees contained in each of 4 replicate cages. Similarly, to measure changes in sensitivity to ivermectin at varying dosages of the inhibitors, 4–12 replicate cages of bees (fewer at extreme dosages, more at intermediates) were fed a series of concentrations of each inhibitor (0, 0.03, 0.06, 0.125, 0.25, 0.5, 1.0, 2.0 mM) for 24 h, then fed a combination of the same inhibitor dose and 1μg/ml ivermectin solution.
Mortality was estimated as the proportion of bees within a cage that were dead at 24 or 48 h after treatment with ivermectin. Comparisons of mean mortality among treatments were tested using t-tests. LC50s of ivermectin with inhibitors were estimated using the ProcProbit procedure in SAS (V. 9.2).

honey bees [2] = assay: Acetamiprid assay: honey bee mortality after acetamiprid with or without inhibitors; conditions: for Mean mortality, acetamiprid with inhibitor: 1 mM inhibitor + 0.1 μg/μl acetamiprid; for Mean mortality, inhibitor only: 1 mM inhibitor without insecticide, 3 replicate cages

In the case of CO[C@@H]1[C@H](OC(=O)/C=C/C=C/C=C/C=C/C(=O)O)CC[C@]2(CO2)[C@H]1[C@@]1(C)O[C@@H]1CC=C(C)C [Fumagillin, fumagillin], the “Low inhibitor dosage that increases sensitivity of bees to ivermectin” value (honey bees [1]; 1 μg/ml ivermectin, 24 h (Fig 2)) is reported as 0.03 mM, the “Mortality (SE) 1 μg/ml IVM and 1mM Inhibitor” value (honey bees [1]) is reported as 0.47 and the “Mortality (SE), inhibitor-only control” value (honey bees [1]) is reported as 0.01 (0.01). The “Mortality (SE), inhibitor-only control” value (honey bees [1]; listed as fumagillin) was 0.01, the “Mean mortality, acetamiprid with inhibitor” value (honey bees [2]; 24 h) was 0.80 and the “Mean mortality, inhibitor only” value (honey bees [2]) was 0.01.

With CC[C@H](C)[C@H]1O[C@]2(CC[C@@H]1C)C[C@@H]1C[C@@H](C/C=C(\C)[C@@H](O[C@H]3C[C@H](OC)[C@@H](O[C@H]4C[C@H](OC)[C@@H](O)[C@H](C)O4)[C@H](C)O3)[C@@H](C)/C=C/C=C3\CO[C@@H]4[C@H](O)C(C)=C[C@@H](C(=O)O1)[C@]34O)O2 [Ivermectin (IVM), Ivermectin] the “Synergism Ratio (LC50 relative to IVM)” value (honey bees [1]; 1 mM inhibitor) was 1.00 and the LC50 of ivermectin (honey bees [1]; ivermectin alone in syrup, 24 h) was 1.57 µg/mL.

For O=c1c(O)c(-c2ccc(O)c(O)c2)oc2cc(O)cc(O)c12 [Quercetin, quercetin], the “Mortality (SE) 1 μg/ml IVM and 1mM Inhibitor” value (honey bees [1]) was 0.54, the “Mortality (SE), inhibitor-only control” value (honey bees [1]) was 0.02 (0.02) and the “Mortality (SE), inhibitor-only control” value (honey bees [1]; listed as quercetin) was 0.02. For the same molecule, the “Mean mortality, acetamiprid with inhibitor” value (honey bees [2]; 24 h) was 0.97 and the “Mean mortality, inhibitor only” value (honey bees [2]) was 0.07.

For C/C(=N\C#N)N(C)Cc1ccc(Cl)nc1 [acetamiprid], the “Mean mortality, acetamiprid alone” value (honey bees [2]; 0.1 μg/μl acetamiprid, 24 h) was 0.25.
